Laboratory results reported in ChEMBL document CHEMBL4265899, “Trisubstituted thiazoles as potent and selective inhibitors of Plasmodium falciparum protein kinase G (PfPKG)” (Bioorg Med Chem Lett, 2018).

How the values were obtained:
[1] = target: RAC-beta serine/threonine-protein kinase (Homo sapiens) (UniProt P31751); test: Inhibition of human PKBbeta at 100 nM
[2] = target: Serine/threonine-protein kinase 26 (Homo sapiens) (UniProt Q9P289); test: Inhibition of human MST4 at 100 nM
[3] = target: cGMP-dependent protein kinase (Plasmodium falciparum, UniProt W7JX98); test: Inhibition of Plasmodium falciparum protein kinase G
[4] = target: MAP kinase-activated protein kinase 5 (Homo sapiens) (UniProt Q8IW41); test: Inhibition of human PRAK at 100 nM
[5] = target: Protein kinase C alpha type (Homo sapiens) (UniProt P17252); test: Inhibition of human PKCalpha at 100 nM
[6] = target: Serine/threonine-protein kinase Chk1 (Homo sapiens) (UniProt O14757); test: Inhibition of human CHK1 at 100 nM
Serine/threonine-protein kinase Chk1 (Homo sapiens), sequence (O14757 whole entry): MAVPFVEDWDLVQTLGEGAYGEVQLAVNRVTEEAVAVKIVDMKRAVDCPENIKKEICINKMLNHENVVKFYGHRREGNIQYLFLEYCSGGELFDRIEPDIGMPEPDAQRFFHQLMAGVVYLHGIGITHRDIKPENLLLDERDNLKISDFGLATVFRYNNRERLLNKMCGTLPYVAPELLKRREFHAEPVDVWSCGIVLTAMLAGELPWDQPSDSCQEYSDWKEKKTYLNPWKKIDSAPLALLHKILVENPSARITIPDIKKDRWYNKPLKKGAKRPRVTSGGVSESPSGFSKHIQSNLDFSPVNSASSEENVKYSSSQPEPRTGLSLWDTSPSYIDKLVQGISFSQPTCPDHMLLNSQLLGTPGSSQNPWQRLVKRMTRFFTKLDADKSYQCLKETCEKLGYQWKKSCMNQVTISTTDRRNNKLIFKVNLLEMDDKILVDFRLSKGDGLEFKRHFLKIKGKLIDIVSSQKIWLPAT

[7] = target: T1, Inhibitor of nuclear factor kappa-B kinase subunit beta (Homo sapiens) (UniProt O14920); details: at 100 nM
T1 sequence (whole entry): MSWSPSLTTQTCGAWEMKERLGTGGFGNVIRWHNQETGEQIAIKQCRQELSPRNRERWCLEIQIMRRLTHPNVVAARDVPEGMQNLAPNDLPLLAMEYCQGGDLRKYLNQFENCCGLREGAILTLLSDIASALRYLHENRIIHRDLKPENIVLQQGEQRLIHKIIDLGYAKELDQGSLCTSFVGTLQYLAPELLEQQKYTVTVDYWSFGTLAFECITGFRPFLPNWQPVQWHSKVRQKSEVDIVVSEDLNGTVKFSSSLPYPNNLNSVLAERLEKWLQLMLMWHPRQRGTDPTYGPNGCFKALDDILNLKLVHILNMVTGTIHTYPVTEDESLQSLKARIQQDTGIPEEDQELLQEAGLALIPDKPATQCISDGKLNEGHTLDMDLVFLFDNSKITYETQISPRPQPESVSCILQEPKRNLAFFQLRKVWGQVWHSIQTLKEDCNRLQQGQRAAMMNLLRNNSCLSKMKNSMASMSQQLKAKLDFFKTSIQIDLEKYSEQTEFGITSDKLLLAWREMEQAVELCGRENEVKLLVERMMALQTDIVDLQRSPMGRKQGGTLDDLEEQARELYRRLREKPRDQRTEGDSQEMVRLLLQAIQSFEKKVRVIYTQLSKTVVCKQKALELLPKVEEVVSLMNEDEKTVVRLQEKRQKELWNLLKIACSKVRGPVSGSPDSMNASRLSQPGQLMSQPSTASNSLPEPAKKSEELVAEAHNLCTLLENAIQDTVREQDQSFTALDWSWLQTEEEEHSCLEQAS
Description: Inhibition of human IKKb at 100 nM

[8] = target: AMP-activated protein kinase, AMPK (Homo sapiens) (UniProt P54646+O43741+P54619+Q9UGJ0+Q9Y478+Q13131+Q9UGI9); test: Inhibition of human AMPK at 100 nM; type: protein-complex assay
[9] = target: Casein kinase 2 (Homo sapiens) (UniProt P67870+P68400+P19784+Q8NEV1); test: Inhibition of human CK2 at 100 nM; type: protein assay
[10] = target: Tyrosine-protein kinase CSK (Homo sapiens) (UniProt P41240); test: Inhibition of human CSK at 100 nM
Tyrosine-protein kinase CSK (Homo sapiens), sequence (P41240 2-450 limits assumed): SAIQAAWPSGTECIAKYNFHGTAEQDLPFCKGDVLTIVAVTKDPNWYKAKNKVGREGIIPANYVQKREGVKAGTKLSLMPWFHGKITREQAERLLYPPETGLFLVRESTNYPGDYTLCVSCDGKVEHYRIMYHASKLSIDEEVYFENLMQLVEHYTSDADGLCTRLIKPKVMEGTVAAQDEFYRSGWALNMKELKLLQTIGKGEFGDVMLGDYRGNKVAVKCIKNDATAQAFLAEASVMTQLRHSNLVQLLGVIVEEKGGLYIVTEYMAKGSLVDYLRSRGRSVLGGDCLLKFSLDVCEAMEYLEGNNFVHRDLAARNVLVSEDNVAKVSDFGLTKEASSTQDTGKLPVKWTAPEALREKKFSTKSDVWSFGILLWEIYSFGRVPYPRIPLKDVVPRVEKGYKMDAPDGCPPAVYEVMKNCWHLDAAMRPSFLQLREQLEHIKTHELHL

[11] = target: Serine/threonine-protein kinase PAK 4 (Homo sapiens) (UniProt O96013); test: Inhibition of human PAK4 at 100 nM
Serine/threonine-protein kinase PAK 4 (Homo sapiens), sequence (O96013 whole entry, looked up): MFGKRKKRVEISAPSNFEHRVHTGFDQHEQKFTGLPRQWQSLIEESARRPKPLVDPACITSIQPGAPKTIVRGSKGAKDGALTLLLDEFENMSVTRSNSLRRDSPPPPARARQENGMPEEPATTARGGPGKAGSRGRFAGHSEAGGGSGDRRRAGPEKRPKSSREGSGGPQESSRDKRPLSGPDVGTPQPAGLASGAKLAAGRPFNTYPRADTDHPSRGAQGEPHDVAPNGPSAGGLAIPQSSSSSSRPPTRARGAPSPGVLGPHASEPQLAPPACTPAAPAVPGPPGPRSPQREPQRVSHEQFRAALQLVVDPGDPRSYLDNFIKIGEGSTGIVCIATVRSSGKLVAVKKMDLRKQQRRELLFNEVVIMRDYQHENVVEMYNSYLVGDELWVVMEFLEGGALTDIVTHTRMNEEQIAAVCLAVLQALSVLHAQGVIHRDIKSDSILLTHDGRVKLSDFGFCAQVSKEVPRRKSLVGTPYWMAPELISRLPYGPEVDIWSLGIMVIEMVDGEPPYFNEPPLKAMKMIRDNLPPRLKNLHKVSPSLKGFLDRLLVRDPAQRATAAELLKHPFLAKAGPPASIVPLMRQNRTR

[12] = target: MAP kinase-interacting serine/threonine-protein kinase 2 (Homo sapiens) (UniProt Q9HBH9); test: Inhibition of human MNK2 at 100 nM
MAP kinase-interacting serine/threonine-protein kinase 2 (Homo sapiens), sequence (Q9HBH9 whole entry, looked up): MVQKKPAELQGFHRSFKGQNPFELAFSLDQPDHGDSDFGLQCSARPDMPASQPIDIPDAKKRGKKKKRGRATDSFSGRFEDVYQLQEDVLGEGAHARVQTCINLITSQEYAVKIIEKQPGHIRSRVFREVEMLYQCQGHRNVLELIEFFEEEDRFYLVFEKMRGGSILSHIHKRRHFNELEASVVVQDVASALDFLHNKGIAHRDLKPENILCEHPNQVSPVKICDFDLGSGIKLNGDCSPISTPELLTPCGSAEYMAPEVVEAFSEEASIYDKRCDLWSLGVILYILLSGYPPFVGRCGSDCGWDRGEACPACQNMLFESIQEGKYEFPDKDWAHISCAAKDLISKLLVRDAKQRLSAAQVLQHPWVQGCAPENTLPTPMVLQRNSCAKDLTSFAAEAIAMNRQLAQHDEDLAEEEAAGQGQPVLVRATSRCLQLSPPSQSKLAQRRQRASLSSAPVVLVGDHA

[13] = target: Myosin light chain kinase, smooth muscle (Homo sapiens) (UniProt Q15746); test: Inhibition of human SmMLCK at 100 nM
[14] = target: Serine/threonine-protein kinase N2 (Homo sapiens) (UniProt Q16513); test: Inhibition of human PRK2 at 100 nM
Serine/threonine-protein kinase N2 (Homo sapiens), sequence (Q16513 whole entry, looked up): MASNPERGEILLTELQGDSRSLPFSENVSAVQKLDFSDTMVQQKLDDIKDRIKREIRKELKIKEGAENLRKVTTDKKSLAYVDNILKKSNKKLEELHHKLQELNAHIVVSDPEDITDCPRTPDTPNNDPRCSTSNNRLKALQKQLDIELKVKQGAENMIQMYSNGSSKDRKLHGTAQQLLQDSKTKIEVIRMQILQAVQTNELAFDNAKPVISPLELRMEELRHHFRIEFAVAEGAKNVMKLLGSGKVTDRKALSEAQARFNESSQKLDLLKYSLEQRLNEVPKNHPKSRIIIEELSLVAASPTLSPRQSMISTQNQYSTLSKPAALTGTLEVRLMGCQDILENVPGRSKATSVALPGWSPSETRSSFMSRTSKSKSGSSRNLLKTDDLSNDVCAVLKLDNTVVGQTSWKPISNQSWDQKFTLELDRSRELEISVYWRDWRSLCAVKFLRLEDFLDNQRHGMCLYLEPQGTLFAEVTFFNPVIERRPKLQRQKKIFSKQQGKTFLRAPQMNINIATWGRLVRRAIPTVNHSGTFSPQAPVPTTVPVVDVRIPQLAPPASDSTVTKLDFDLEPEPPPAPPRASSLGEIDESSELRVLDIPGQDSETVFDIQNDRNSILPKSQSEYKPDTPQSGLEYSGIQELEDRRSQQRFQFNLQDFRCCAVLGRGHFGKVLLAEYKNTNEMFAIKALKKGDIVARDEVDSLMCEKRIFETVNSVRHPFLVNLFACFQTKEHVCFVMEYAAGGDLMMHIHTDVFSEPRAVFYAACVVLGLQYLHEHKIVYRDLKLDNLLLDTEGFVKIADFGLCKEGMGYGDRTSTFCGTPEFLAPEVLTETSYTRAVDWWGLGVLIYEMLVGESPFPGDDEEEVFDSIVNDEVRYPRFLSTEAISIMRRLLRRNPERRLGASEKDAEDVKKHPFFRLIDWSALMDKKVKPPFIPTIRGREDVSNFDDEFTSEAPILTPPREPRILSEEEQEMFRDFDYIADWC

[15] = target: Dual specificity mitogen-activated protein kinase kinase 1 (Homo sapiens) (UniProt Q02750); test: Inhibition of human MKK1 at 100 nM
Dual specificity mitogen-activated protein kinase kinase 1 (Homo sapiens), sequence (Q02750 whole entry): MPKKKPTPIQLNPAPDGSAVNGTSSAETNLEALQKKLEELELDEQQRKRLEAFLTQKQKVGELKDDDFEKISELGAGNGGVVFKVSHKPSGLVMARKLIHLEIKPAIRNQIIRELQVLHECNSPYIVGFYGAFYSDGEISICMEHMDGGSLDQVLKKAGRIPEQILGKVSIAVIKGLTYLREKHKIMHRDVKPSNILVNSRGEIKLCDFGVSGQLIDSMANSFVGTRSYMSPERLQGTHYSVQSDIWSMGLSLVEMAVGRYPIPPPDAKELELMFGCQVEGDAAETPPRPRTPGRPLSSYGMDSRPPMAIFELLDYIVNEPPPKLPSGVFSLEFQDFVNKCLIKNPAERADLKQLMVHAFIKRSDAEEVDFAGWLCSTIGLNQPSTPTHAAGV

[16] = Permeability of the compound by PAMPA

Serine/threonine-protein kinase 26 (Homo sapiens), sequence (Q9P289 2-416 limits assumed): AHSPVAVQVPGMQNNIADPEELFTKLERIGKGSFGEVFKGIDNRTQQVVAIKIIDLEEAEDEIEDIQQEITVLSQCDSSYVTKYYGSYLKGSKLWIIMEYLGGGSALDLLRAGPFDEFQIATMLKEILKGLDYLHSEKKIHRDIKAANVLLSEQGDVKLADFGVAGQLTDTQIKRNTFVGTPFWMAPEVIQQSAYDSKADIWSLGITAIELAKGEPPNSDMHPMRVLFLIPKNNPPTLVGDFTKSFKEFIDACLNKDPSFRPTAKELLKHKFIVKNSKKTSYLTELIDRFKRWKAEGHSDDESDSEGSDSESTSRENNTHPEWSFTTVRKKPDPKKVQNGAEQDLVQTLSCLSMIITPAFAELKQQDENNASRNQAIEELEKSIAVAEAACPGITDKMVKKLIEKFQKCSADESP
RAC-beta serine/threonine-protein kinase (Homo sapiens), sequence (P31751 whole entry): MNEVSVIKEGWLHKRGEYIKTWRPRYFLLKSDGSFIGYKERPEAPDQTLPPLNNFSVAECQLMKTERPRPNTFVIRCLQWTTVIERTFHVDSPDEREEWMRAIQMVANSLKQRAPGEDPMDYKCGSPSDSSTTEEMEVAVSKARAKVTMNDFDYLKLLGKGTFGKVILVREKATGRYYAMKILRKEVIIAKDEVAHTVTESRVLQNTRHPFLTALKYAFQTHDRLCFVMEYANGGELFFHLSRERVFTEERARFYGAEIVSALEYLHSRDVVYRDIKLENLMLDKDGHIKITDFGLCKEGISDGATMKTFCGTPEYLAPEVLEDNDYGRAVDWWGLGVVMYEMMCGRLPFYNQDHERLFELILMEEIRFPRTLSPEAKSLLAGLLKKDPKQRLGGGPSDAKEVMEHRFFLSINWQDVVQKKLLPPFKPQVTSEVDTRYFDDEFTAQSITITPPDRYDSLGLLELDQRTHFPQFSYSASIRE

| Compound | inhibition [1] [%] | inhibition [2] [%] | IC50 [3] [nM] | inhibition [4] [%] | inhibition [5] [%] | inhibition [6] [%] | inhibition [7] [%] | inhibition [8] [%] | inhibition [9] [%] | inhibition [10] [%] | inhibition [11] [%] | inhibition [12] [%] | inhibition [13] [%] | inhibition [14] [%] | inhibition [15] [%] | Papp [16] [×10⁻⁶ cm/s] |
| --- | --- | --- | --- | --- | --- | --- | --- | --- | --- | --- | --- | --- | --- | --- | --- | --- |
| CN1CCC(c2nc(-c3cccc(S(C)(=O)=O)c3)c(-c3ccnc(Nc4ccc(N5CCNCC5)cc4)n3)s2)CC1 | < 70 | < 70 | 0.9 | < 70 | < 70 | < 70 | < 70 | < 70 | < 70 | < 70 | < 70 | < 70 | < 70 | < 70 | < 70 |  |
| CN1CCC(c2nc(-c3ccc(F)c(NS(C)(=O)=O)c3)c(-c3ccnc(NCC4CC4)n3)s2)CC1 | < 70 | < 70 |  | < 70 | < 70 | < 70 | < 70 |  | < 70 | < 70 | < 70 | < 70 | < 70 | < 70 | < 70 | 5.7 |
